From paper PMC3806475, “Marine Derived Hamacanthins as Lead for the Development of Novel PDGFRβ Protein Kinase Inhibitors” (Marine Drugs, 2013)

Tests used:
CDK2/CycA = CDK2/CycA (Homo sapiens, UniProt P24941); assay: 33PanQinase protein kinase activity assay; type: biochemical; conditions: recombinant kinase, 1 µM ATP
ERBB2 = ERBB2 (Homo sapiens, UniProt P04626); assay: 33PanQinase protein kinase activity assay; type: biochemical; conditions: recombinant kinase, 1 µM ATP
Source text: (§1) Recombinant protein kinases.

CK2a1 = CK2a1 (Homo sapiens, UniProt P68400); assay: 33PanQinase protein kinase activity assay; type: biochemical; conditions: recombinant kinase, 1 µM ATP
Source text: as §1

COT = COT (Homo sapiens, UniProt P41279); assay: 33PanQinase protein kinase activity assay; type: biochemical; conditions: recombinant kinase, 1 µM ATP
Chain of COT (P41279 whole entry): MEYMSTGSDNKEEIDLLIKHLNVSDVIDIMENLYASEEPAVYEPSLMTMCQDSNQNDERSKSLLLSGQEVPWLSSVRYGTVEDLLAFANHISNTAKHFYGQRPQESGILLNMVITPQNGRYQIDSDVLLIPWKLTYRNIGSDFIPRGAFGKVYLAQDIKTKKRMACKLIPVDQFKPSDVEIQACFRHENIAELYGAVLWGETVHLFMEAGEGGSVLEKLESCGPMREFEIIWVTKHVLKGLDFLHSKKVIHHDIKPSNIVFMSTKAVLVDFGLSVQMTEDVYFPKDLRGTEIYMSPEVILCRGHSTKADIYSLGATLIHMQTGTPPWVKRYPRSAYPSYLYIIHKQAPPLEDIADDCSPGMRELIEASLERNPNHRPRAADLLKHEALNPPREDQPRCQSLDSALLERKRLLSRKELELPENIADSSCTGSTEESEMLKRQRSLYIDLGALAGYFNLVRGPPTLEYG
Source text: as §1

PLK1 = PLK1 (Homo sapiens, UniProt P53350); assay: 33PanQinase protein kinase activity assay; type: biochemical; conditions: recombinant kinase, 1 µM ATP
Chain of PLK1 (P53350 whole entry): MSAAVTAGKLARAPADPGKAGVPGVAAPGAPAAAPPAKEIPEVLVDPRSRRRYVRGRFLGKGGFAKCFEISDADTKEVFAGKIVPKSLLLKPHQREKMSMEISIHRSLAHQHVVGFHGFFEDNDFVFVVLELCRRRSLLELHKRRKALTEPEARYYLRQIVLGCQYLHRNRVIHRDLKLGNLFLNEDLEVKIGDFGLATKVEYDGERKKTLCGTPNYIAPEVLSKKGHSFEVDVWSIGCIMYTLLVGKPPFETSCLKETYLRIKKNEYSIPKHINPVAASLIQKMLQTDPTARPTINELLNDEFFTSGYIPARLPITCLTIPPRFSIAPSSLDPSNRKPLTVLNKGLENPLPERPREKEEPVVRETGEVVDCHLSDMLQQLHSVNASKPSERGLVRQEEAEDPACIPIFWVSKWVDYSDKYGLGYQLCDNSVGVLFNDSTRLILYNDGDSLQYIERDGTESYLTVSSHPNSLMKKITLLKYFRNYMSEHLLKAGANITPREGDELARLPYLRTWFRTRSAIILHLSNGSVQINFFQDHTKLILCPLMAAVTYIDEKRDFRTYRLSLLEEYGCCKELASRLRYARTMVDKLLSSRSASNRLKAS
Source text: as §1

SAK = SAK (Homo sapiens, UniProt O00444); assay: 33PanQinase protein kinase activity assay; type: biochemical; conditions: recombinant kinase, 1 µM ATP
Chain of SAK (O00444 whole entry): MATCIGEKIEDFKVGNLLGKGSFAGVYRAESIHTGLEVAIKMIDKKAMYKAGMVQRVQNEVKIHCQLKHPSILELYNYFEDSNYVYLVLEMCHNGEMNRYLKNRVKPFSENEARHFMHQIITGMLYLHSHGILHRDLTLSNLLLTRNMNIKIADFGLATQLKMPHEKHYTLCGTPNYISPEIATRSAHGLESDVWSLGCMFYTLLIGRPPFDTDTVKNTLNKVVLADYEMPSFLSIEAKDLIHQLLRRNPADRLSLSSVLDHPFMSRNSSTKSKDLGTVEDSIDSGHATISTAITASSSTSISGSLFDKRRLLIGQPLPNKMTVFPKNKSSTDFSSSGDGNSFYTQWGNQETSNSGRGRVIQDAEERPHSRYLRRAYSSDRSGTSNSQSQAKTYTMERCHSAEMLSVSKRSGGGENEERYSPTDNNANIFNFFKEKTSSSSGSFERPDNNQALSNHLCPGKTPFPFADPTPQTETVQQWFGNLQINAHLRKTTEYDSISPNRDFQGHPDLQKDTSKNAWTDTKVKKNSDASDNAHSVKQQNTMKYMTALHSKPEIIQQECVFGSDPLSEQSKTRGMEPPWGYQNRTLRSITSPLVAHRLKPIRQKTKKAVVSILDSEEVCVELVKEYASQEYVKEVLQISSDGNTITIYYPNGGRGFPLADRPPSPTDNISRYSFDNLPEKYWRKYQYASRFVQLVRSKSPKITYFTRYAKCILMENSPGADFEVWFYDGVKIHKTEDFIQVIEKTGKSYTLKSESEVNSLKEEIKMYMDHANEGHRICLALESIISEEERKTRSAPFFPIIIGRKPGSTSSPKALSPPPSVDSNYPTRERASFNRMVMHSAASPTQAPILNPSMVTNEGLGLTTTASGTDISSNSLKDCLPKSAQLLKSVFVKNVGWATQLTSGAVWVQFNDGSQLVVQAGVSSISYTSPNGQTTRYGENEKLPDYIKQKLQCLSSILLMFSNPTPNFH
Source text: as §1

B-RAF-VE = B-RAF-VE (Homo sapiens, UniProt P15056, V600E); assay: 33PanQinase protein kinase activity assay; type: biochemical; conditions: recombinant kinase, 1 µM ATP
Source text: as §1

FLT3 = FLT3 (Homo sapiens, UniProt P36888); assay: 33PanQinase protein kinase activity assay; type: biochemical; conditions: recombinant kinase, 1 µM ATP
Source text: as §1

MET = MET (Homo sapiens, UniProt P08581); assay: 33PanQinase protein kinase activity assay; type: biochemical; conditions: recombinant kinase, 1 µM ATP
Source text: as §1

VEGF-R3 = VEGF-R3 (Homo sapiens, UniProt P35916); assay: 33PanQinase protein kinase activity assay; type: biochemical; conditions: recombinant kinase, 1 µM ATP
Chain of VEGF-R3 (P35916 25-1363): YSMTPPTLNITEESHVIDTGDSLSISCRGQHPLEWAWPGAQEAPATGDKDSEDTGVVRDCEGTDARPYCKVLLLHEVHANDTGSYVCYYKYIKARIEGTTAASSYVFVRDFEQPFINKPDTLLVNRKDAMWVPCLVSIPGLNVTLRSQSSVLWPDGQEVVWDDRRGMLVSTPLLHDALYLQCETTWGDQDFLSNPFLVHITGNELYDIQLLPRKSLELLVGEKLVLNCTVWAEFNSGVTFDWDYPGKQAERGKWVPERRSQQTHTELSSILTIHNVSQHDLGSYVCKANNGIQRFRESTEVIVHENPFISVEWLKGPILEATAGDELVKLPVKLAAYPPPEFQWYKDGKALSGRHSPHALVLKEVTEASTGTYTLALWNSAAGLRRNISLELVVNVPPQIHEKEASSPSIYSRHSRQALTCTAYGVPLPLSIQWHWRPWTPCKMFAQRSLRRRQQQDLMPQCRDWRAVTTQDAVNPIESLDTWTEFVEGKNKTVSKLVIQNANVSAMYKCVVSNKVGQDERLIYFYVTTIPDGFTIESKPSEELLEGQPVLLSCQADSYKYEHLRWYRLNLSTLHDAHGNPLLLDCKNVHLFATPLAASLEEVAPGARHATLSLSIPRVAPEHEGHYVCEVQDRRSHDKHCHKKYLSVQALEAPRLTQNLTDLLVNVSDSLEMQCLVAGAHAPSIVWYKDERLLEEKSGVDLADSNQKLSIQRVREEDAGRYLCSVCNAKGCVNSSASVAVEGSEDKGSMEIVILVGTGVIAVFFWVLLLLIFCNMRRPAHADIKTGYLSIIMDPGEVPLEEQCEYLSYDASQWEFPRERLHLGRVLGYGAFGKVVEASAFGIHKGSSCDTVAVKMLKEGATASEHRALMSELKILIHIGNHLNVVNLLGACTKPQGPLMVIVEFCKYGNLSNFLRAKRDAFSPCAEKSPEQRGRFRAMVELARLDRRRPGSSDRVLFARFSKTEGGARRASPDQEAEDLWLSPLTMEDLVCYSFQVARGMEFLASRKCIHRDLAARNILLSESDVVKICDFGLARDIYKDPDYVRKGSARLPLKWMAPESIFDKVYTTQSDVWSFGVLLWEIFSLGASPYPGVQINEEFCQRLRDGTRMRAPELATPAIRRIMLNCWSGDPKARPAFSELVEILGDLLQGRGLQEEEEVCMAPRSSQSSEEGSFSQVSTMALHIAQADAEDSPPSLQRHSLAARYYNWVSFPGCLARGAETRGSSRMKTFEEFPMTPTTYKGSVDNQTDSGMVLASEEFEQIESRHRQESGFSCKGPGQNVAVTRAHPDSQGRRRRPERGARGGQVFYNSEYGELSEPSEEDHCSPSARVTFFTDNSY
Source text: as §1

Aurora-B = Aurora-B (Homo sapiens, UniProt Q96GD4); assay: 33PanQinase protein kinase activity assay; type: biochemical; conditions: recombinant kinase, 1 µM ATP
Chain of Aurora-B (Q96GD4 whole entry): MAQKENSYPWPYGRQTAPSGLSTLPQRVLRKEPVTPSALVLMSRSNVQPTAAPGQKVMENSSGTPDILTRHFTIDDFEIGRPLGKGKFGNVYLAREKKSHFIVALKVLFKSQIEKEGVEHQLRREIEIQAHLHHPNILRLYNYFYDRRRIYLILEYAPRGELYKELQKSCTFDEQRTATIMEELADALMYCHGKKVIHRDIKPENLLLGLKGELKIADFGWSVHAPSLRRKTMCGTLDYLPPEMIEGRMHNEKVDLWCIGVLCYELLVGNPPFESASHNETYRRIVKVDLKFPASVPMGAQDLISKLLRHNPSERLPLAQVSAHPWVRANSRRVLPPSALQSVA

CDK4/CycD1 = CDK4/CycD1 (Homo sapiens, UniProt P11802); assay: 33PanQinase protein kinase activity assay; type: biochemical; conditions: recombinant kinase, 1 µM ATP
[1] = tested on: TK 10, 786-0, M 14, and MCF-7 cell lines; assay: Cell viability assay (CellTiter-Glo), other cell lines; type: cell-based; conditions: TK 10, 786-0, M 14, MCF-7; 48 h; compared with HL-60
Experimental: In order to determine the cytotoxic profiles of compounds 5 and 8, they were evaluated in cell viability assays (Figure 7) including HL-60, a human myeloblastic leukemia cell line, as it has been shown that the proliferation and differentiation of these cells depend upon PDGFR-signalling. Cells were treated with compounds 5 and 8 and after 48 h incubation, their viability was determined. […] This is in line with the notion that HL-60 cells depend on PDGFR-signaling.
The cells were grown in RPMI 1640 Glutamax with 10% FCS, 100 µg/mL streptomycin and 100 U/mL Penicillin G and incubated in a 5% CO2 humidified atmosphere at 37 °C. For proliferation experiments, cells were seeded in 20 µL pro well into 384-well Greiner 384 CellStar® plates (Greiner Bio-One I. AG, Kremsmünster, AT). In addition to the test plates, one plate was prepared for the reference measurement at day zero. All plates were incubated for 24 h at 37 °C in a humidified atmosphere with 5% CO2. […] The viability of the cells in the day zero control plates were determined on the same day without adding any compounds. […] The luminescence signal was measured at the EnSpire® Multimode Plate Reader (PerkinElmer, Waltham, MA, USA). […] Measured raw data were converted into percent of cell growth by using the high control (0.5% DMSO v/v without compound) and the day zero control. […]

INSR = INSR (Homo sapiens, UniProt P06213); assay: 33PanQinase protein kinase activity assay; type: biochemical; conditions: recombinant kinase, 1 µM ATP
IGF1R = IGF1R (Homo sapiens, UniProt P08069); assay: 33PanQinase protein kinase activity assay; type: biochemical; conditions: recombinant kinase, 1 µM ATP
VEGF-R2 = VEGF-R2 (Homo sapiens, UniProt P35968); assay: 33PanQinase protein kinase activity assay; type: biochemical; conditions: recombinant kinase, 1 µM ATP
Source text: as §1

SRC = SRC (Homo sapiens, UniProt P12931); assay: 33PanQinase protein kinase activity assay; type: biochemical; conditions: recombinant kinase, 1 µM ATP
FAK = FAK (Homo sapiens, UniProt Q05397); assay: 33PanQinase protein kinase activity assay; type: biochemical; conditions: recombinant kinase, 1 µM ATP
PDGFRβ = PDGFRβ (Homo sapiens, UniProt P09619); assay: 33PanQinase protein kinase activity assay; type: biochemical; conditions: recombinant kinase, 1 µM ATP
Chain of PDGFRβ (P09619 33-1106): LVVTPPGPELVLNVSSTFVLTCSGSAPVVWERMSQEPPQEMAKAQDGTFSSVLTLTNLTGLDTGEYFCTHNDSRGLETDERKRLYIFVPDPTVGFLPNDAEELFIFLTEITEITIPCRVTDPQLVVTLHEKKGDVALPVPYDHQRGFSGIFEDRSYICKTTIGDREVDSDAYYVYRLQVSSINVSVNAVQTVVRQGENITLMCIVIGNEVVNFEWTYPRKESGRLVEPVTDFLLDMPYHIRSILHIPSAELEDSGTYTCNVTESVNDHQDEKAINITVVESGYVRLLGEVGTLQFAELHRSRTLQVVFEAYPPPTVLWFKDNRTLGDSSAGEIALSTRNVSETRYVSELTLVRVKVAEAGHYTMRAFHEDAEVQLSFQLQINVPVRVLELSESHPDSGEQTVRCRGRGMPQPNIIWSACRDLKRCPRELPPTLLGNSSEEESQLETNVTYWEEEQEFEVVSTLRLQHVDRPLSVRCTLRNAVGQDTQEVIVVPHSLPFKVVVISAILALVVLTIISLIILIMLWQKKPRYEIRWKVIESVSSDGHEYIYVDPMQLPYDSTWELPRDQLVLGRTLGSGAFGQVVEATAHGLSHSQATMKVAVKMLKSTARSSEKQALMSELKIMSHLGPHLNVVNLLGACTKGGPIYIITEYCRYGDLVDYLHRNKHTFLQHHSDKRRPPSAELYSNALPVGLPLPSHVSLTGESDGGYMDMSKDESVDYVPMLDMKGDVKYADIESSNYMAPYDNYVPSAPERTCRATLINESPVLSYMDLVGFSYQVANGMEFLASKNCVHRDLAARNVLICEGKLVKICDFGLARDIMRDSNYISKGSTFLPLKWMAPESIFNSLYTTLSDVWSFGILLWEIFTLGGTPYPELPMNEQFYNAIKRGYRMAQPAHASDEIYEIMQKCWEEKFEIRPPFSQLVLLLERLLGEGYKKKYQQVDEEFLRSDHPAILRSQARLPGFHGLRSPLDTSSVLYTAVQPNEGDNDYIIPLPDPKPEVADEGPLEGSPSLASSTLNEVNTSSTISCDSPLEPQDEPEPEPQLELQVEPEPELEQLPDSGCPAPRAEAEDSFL

Aurora-A = Aurora-A (Homo sapiens, UniProt O14965); assay: 33PanQinase protein kinase activity assay; type: biochemical; conditions: recombinant kinase, 1 µM ATP
ARK5 = ARK5 (Homo sapiens, UniProt O60285); assay: 33PanQinase protein kinase activity assay; type: biochemical; conditions: recombinant kinase, 1 µM ATP
TIE2 = TIE2 (Homo sapiens, UniProt Q02763); assay: 33PanQinase protein kinase activity assay; type: biochemical; conditions: recombinant kinase, 1 µM ATP
EGFR = EGFR (Homo sapiens, UniProt P00533); assay: biochemical
EPHB4 = EPHB4 (Homo sapiens, UniProt P54760); assay: 33PanQinase protein kinase activity assay; type: biochemical; conditions: recombinant kinase, 1 µM ATP
AKT1 = AKT1 (Homo sapiens, UniProt P31749); assay: 33PanQinase protein kinase activity assay; type: biochemical; conditions: recombinant kinase, 1 µM ATP
HL-60 cells = assay: Cell viability assay (CellTiter-Glo); type: cell-based; conditions: Homo sapiens, 48 h incubation
[2] = tested on: bacterial methicillin-resistant Staphylococcus (MRSA-PK); design: method as in PMID 22030393; conditions: cited from earlier work

Compound | IC50 (PDGFRβ) | IC50 (ERBB2) | IC50 (CK2a1) | IC50 (COT) | IC50 (PLK1) | IC50 (SAK) | IC50 (B-RAF-VE) | IC50 (FLT3) | IC50 (MET) | IC50 (VEGF-R3) | IC50 (Aurora-B) | cytotoxic effect on the other cells tested [1] | also measured
3-(indole-3-yl)-4-(3,4,5-trimethoxyphenyl)-1H-pyrrole-2,5-dione [Compound 1, reference compound] | – | 51 µM | > 100 µM | 32 µM | > 100 µM | 10 µM | > 100 µM | 61 µM | 60 µM | 0.037 µM | 66 µM | – | IC50 (CDK2/CycA): 66 µM; IC50 (CDK4/CycD1): 56 µM
COc1cc(-c2nc(-c3c[nH]c4ccccc34)c[nH]c2=O)cc(OC)c1OC [Compound 5, 5-(1H-indole-3-yl)-3-(3,4,5-trimethoxyphenyl)pyrazin-2(1H)-one] | 0.5 µM | > 100 µM | > 100 µM | > 100 µM | > 100 µM | > 100 µM | > 100 µM | 36 µM | > 100 µM | 5 µM | > 100 µM | significantly less affected | IC50 (INSR): > 100 µM; IC50 (IGF1R): > 100 µM; IC50 (VEGF-R2): 4 µM; IC50 (µM) VEGF-R3 (VEGF-R3): low µM range; IC50 (SRC): > 100 µM; IC50 (FAK): > 100 µM; IC50 (Aurora-A): > 100 µM; IC50 (ARK5): > 100 µM; IC50 (TIE2): > 100 µM; IC50 (EGFR): > 100 µM; IC50 (EPHB4): > 100 µM; IC50 (AKT1): > 100 µM
O=C1NC[C@@H](c2c[nH]c3cc(Br)ccc23)N[C@H]1c1c[nH]c2cc(Br)ccc12 [cis-3,4-dihydro hamacanthin B] | – | – | – | – | – | – | – | – | – | – | – | – | IC50 [2]: 0.016 µM

More lines, main results first:

IC50 (PDGFRβ) | Compound | IC50 (ERBB2) | IC50 (CK2a1) | IC50 (COT) | IC50 (PLK1) | IC50 (SAK) | IC50 (B-RAF-VE) | IC50 (FLT3) | IC50 (MET) | IC50 (VEGF-R3) | IC50 (Aurora-B) | cytotoxic effect on the other cells tested [1] | also measured
1.5 µM | COc1ccc(-c2nc(-c3c[nH]c4ccccc34)c[nH]c2=O)cc1OC [Compound 6, 3-(3,4-dimethoxyphenyl)-5-(1H-indol-3-yl)-1H-pyrazin-2-one] | – | – | – | – | – | – | – | – | – | – | – | –
19 µM | COc1ccc(-c2nc(-c3c[nH]c4ccccc34)c[nH]c2=O)cc1 [Compound 7, 3-(4-methoxyphenyl)-5-(1H-indol-3-yl)-1H-pyrazin-2-one] | – | – | – | – | – | – | – | – | – | – | – | –
0.3 µM | COc1cc(-c2nc(-c3c[nH]c4ccc(O)cc34)c[nH]c2=O)cc(OC)c1OC [Compound 8, 5-(5-hydroxy-1H-indole-3-yl)-3-(3,4,5-trimethoxyphenyl)pyrazin-2(1H)-one] | – | – | – | – | – | – | – | – | – | – | significantly less affected | IC50 (HL-60 cells): 30 µM
